Results taken from PMC10059066, “Probing Serum Albumins and Cyclodextrins as Binders of the Mycotoxin Metabolites Alternariol-3-Glucoside, Alternariol-9-Monomethylether-3-Glucoside, and Zearalenone-14-Glucuronide” (Metabolites, 2023).

Assays:
[1] = target: T1, human serum albumin (HSA) (Homo sapiens, UniProt P02768); experiment: Fluorescence quenching of human serum albumin by mycotoxins; format: binding; details: for HSA logKSV ± SEM (Stern–Volmer quenching constant): PBS pH 7.4, 25 °C, n = 3; for Kd: fluorescence quenching, HyperQuad fitting, PBS pH 7.4, n = 3, read-out: HSA logK ± SEM (binding constant) (converted)
T1 construct: purchased Merck (Darmstadt, Germany)
Method: (§1) Fluorescence emission spectra were collected at 25 °C using a Hitachi F-4500 fluorescence spectrophotometer (Tokyo, Japan). The quenching effects of AG, AMG, and Z14Glr (each 0–5 μM) on the emission signals of albumins (2 μM each) were examined at 340 nm in phosphate-buffered saline (PBS, pH 7.4). UV–vis measurements were performed at 25 °C in PBS, employing a Jasco V730 UV–vis spectrophotometer (Tokyo, Japan). Thereafter, we corrected the inner-filter effects of the mycotoxins, as previously reported. Stern–Volmer quenching constants (KSV; L/mol) were calculated with the graphical application of the Stern–Volmer equation [11, 29]:(1) I0/I=1+KSV×Q where I0 and I are the emission intensities of the protein without and with the quencher, respectively, while [Q] is the concentration (mol/L) of the quencher (mycotoxin). The binding constants (K; L/mol) of mycotoxin–albumin complexes were determined with nonlinear fitting, using the HyperQuad2006 software (version 3.1; Protonic Software GmbH, Hanau, Germany), as described previously.
(§2) The interaction of a ligand molecule with albumin usually induces a decrease in the emission signal of the protein [33]; therefore, fluorescence quenching studies were performed. In PBS (pH 7.4), increasing amounts of AG, AMG, and Z14Glr were added to standard concentrations of human (HSA), bovine (BSA), porcine (PSA), or rat (RSA) serum albumins, after which the emission spectra were recorded.
(§3) The KSV and K values of mycotoxin–albumin complexes were determined using the Stern–Volmer equation (Equation (1)) and the HyperQuad2006 software (see data in Table 1 and Table 2, respectively). […] The logKSV and logK values of the mycotoxin–albumin complexes were in good agreement (Table 1 and Table 2).

[2] = target: T2, bovine serum albumin (BSA) (Bos taurus, UniProt P02769); experiment: Fluorescence quenching of bovine serum albumin by mycotoxins; format: binding; details: for BSA logKSV ± SEM (Stern–Volmer quenching constant): PBS pH 7.4, 25 °C, n = 3; for Kd: fluorescence quenching, HyperQuad fitting, PBS pH 7.4, n = 3, read-out: BSA logK ± SEM (binding constant) (converted)
T2 construct: purchased Merck (Darmstadt, Germany)
Method: as §1, §2, §3

[3] = target: T3, porcine serum albumin (PSA) (Sus scrofa, UniProt P08835); experiment: Fluorescence quenching of porcine serum albumin by mycotoxins; format: binding; details: for PSA logKSV ± SEM (Stern–Volmer quenching constant): PBS pH 7.4, 25 °C, n = 3; for Kd: fluorescence quenching, HyperQuad fitting, PBS pH 7.4, n = 3, read-out: PSA logK ± SEM (binding constant) (converted)
T3 construct: purchased Merck (Darmstadt, Germany)
Method: as §1, §2, §3

[4] = test system: serum albumins (HSA, BSA, PSA, RSA); experiment: Fluorescence quenching, summary over the tested albumins; format: binding, human, bovine, porcine, rat; details: PBS pH 7.4, approximate over the albumins tested
Method: as §1, §3

rat serum albumin (RSA) = target: T4, rat serum albumin (RSA) (Rattus norvegicus, UniProt P02770); experiment: Ultracentrifugation study of Z14Glr-RSA binding; details: PBS pH 7.4, read-out: logK of the Z14Glr–RSA complex (converted)
T4 construct: purchased Merck (Darmstadt, Germany)

[5] = mycotoxin 0–5 μM, albumin 2 μM, PBS pH 7.4

T2 sequence (P02769 25-607): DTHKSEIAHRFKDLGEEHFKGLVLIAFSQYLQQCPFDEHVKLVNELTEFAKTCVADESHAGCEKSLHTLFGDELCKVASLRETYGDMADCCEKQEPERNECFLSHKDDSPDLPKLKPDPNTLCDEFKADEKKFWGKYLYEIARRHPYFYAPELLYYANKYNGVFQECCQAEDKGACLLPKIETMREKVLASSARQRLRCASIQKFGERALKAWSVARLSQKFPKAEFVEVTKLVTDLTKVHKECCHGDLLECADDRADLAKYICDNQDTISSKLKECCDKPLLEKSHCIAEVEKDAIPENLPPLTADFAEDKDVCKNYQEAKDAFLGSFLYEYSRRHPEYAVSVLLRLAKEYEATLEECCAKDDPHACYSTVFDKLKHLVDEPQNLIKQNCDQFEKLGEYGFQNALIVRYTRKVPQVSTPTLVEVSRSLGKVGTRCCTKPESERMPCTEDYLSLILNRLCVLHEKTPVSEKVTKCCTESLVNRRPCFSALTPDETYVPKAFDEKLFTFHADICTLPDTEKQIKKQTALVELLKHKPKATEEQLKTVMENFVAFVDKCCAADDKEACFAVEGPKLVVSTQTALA
T1 sequence (P02768 25-609): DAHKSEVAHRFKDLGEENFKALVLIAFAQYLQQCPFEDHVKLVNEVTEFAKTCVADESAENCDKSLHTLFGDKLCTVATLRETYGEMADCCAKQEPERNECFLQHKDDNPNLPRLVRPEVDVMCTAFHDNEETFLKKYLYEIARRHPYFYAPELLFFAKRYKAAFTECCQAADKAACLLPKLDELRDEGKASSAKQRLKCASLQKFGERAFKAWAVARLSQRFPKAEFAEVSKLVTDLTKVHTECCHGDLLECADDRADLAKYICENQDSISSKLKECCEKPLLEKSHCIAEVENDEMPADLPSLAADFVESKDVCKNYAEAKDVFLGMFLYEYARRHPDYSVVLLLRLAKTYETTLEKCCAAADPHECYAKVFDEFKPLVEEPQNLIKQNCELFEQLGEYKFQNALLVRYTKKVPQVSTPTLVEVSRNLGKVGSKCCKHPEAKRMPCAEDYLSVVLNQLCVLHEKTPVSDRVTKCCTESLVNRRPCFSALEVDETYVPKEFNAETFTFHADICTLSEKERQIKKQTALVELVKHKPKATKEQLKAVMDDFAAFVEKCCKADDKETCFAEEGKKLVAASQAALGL
T3 sequence (P08835 25-607): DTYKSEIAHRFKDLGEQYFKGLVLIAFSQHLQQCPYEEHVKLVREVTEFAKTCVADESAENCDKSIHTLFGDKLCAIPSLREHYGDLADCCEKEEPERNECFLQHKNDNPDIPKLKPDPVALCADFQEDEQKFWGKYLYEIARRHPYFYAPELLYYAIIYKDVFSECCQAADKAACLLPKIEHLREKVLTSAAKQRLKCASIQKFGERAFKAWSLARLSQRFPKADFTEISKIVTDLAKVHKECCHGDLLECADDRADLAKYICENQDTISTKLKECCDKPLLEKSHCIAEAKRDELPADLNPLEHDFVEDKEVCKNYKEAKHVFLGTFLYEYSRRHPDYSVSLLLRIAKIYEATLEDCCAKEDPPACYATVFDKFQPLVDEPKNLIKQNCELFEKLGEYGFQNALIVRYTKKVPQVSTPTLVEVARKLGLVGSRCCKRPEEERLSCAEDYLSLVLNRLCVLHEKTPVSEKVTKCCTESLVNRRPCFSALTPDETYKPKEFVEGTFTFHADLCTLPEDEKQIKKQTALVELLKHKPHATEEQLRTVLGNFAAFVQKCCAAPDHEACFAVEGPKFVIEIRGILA
T4 sequence (P02770 25-608): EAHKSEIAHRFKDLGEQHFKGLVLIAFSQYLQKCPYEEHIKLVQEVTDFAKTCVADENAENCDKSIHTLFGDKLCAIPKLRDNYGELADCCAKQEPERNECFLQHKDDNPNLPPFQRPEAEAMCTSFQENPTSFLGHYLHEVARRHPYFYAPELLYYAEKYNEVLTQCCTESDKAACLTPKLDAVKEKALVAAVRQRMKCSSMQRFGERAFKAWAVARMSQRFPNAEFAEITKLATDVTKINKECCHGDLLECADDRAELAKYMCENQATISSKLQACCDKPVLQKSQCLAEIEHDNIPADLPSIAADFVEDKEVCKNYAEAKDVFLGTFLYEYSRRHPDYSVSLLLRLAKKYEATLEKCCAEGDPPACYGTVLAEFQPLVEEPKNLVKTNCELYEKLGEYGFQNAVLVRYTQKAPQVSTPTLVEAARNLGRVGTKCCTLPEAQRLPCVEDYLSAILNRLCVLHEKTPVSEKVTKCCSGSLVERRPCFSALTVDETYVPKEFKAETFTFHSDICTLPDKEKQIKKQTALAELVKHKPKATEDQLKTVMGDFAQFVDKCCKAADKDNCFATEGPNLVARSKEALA

Compound	HSA logKSV ± SEM (Stern–Volmer quenching constant) ([1]; albumin 2 μM, mycotoxin 0–5 μM) [L/mol]	Kd [1] [µM]	BSA logKSV ± SEM (Stern–Volmer quenching constant) ([2]; albumin 2 μM, mycotoxin 0–5 μM) [L/mol]	Kd [2] [µM]	PSA logKSV ± SEM (Stern–Volmer quenching constant) ([3]; albumin 2 μM, mycotoxin 0–5 μM) [L/mol]	Kd [3] [µM]	binding constant K of mycotoxin–albumin complexes [4]	effect on fluorescence emission spectrum of HSA [1, 5]	effect on fluorescence emission spectrum of BSA [2, 5]	effect on fluorescence emission spectrum of PSA [3, 5]	Kd (rat serum albumin (RSA)) [µM]
COc1cc(O)c2c(=O)oc3cc(OC4O[C@H](CO)[C@@H](O)[C@H](O)[C@H]4O)cc(C)c3c2c1 (stereo partly drawn) [AMG, alternariol-9-monomethylether-3-glucoside]	4.38 ± 0.05	39.8	4.57 ± 0.02	25.7	4.27 ± 0.03	51.3	≈ 3 × 10^4 L/mol				
C[C@H]1CCCC(=O)CCC/C=C/c2cc(O[C@@H]3OC(C(=O)O)[C@@H](O)C(O)C3O)cc(O)c2C(=O)O1 (stereo partly drawn) [Z14Glr, zearalenone-14-β,D-glucuronide]								barely affected	barely affected	barely affected	13.5
Cc1cc(OC2O[C@H](CO)[C@@H](O)[C@H](O)[C@H]2O)cc2oc(=O)c3c(O)cc(O)cc3c12 (stereo partly drawn) [AG, alternariol-3-glucoside]	4.48 ± 0.08	30.2	4.44 ± 0.04	34.7	4.38 ± 0.03	37.2	≈ 3 × 10^4 L/mol				
